The data set concerns ovariectomized rats. Briefly: Uterine wet weight of ovariectomized rats. Type of data set: in vivo, Sprague-Dawley female rats. Particulars: OVX rats; compound 1a 0.003-3 mg/kg; 17α-ethynyl estradiol 0.1 mg/kg. The protocol:
Following treatment with the test compounds, the rats were anesthetized and subjected to cardiac puncture and euthanized by CO2 inhalation. Uteri were removed and wet weight were determined on a Mettler balance to evaluate ovariectomy and efficacy of treatment with estrogen. Blood samples were allowed to clot at 4° C. for 2 hr before centrifugation at 2,000 g for 10 min. Serum were collected and stored at −70° C. before analysis. Serum cholesterol was assayed using a high performance calorimetric assay (Boehringer Mannheim Biochemicals, Indianapolis, Ind.). Tibia and femora were removed, cleaned of soft-tissue, fixed in 50% ethanol/ saline, and stored at 4° C. Vertebra L1-6 were removed and analyzed by QCT, histomorphometry, and biomechanics.
In the first study, six-month old virgin Sprague-Dawley female rats weighing about 300 g each were maintained on a 12 hr light/12 hr dark cycle at 22° C. with ad lib access to food (TD 89222 diet containing 0.5% calcium and 0.4% phosphorus, Teklad, Madison, Wis., USA), Except for sham-operated control animals, bilateral ovariectomies were performed on the test animals. In the case of the sham-operated animals, the surgical ovariectomization technique was followed, but the ovaries were left intact to provide a control for assessing any effect which might be due to the surgical trauma. […]

Consider `C#C[C@]1(O)CC[C@H]2[C@@H]3CCc4cc(O)ccc4[C@H]3CC[C@@]21C` [EE2, 17α-ethynyl estradiol], for which the uterine wet weight entry is on record as “increased uterine weight above OVX to Sham levels”.

These data come from US20020025929A1, “METHOD OF BUILDING AND MAINTAINING BONE” (priority 1997, published 2002).
